These results are taken from ChEMBL document CHEMBL5107967, “Targeting EZH2 for cancer therapy: From current progress to novel strategies” (Eur J Med Chem, 2022).

For one series, the system named is PC-3. Description: Antiproliferative activity against human PC-3 cells assessed as inhibition of cell proliferation incubated for 3 to 7 days followed by replacement of medium containing compound every 3 days by CCK8 assay. The class given is functional, cell-based. For orientation: Tetrazolium assays rely on reduction of a dye to a coloured formazan, in cell work by metabolically active cells.

The subject of the next series is SK-OV-3. Kind of series: Antiproliferative activity against human SK-OV-3 cells assessed as inhibition of cell proliferation incubated for 3 to 7 days followed by replacement of medium containing compound every 3 days by CCK8 assay. The class given is functional, cell-based.
For the next series, the species on record is Homo sapiens. Kind of series: Selectivity ratio of IC50 for EZH1 (unknown origin) to IC50 for EZH2 (unknown origin).
Series [1] concerns the target T1, Histone-lysine N-methyltransferase EZH2 (Homo sapiens, UniProt Q15910). Kind of series: Displacement of [3H-SAM] from EZH2 in PRC2 complex (unknown origin) incubated for 1 hr by […] assay.
Series [2] in a line: Solubility of the compound in water. It counts as physicochemical.
A short description of series [3]: Inhibition of N-terminal 6xHis SUMO-tagged human EED expressed in Escherichia coli BL21 (DE3)/FITC-labeled EZH2 (39 to 63 residues)(unknown origin) interaction incubated for 2 hrs by fluorescence polarization based competitive assay. (In general: In fluorescence polarisation assays a small probe gives low polarisation when free and higher when bound to something large.)

The next series concerns K562. Kind of series: Antiproliferative activity against human K562 cells assessed as inhibition of cell proliferation incubated for 48 hrs by MTT assay. The class given is functional, cell-based. The note with it: K562, 48 h.
Series [4] in a line: Binding affinity to PRC2 (unknown origin) assessed as inhibition constant. The arrangement: species or system Homo sapiens.
The target in series [5] is T1, Histone-lysine N-methyltransferase EZH2. Kind of series: Inhibition of wild-type EZH2 in PRC2 complex (unknown origin) using monomethylated H3K27 as substrate by radiometric assay.

The IC50 is the concentration needed to halve the response being measured. As a reminder, the solubility is the dissolved amount per volume that the medium holds. As usually defined, the Ki is the dissociation constant of the complex between target and ligand, obtained from inhibition or displacement.

≈ marks a conversion by molar mass, not a printed value.

T1 sequence (Q15910 whole entry): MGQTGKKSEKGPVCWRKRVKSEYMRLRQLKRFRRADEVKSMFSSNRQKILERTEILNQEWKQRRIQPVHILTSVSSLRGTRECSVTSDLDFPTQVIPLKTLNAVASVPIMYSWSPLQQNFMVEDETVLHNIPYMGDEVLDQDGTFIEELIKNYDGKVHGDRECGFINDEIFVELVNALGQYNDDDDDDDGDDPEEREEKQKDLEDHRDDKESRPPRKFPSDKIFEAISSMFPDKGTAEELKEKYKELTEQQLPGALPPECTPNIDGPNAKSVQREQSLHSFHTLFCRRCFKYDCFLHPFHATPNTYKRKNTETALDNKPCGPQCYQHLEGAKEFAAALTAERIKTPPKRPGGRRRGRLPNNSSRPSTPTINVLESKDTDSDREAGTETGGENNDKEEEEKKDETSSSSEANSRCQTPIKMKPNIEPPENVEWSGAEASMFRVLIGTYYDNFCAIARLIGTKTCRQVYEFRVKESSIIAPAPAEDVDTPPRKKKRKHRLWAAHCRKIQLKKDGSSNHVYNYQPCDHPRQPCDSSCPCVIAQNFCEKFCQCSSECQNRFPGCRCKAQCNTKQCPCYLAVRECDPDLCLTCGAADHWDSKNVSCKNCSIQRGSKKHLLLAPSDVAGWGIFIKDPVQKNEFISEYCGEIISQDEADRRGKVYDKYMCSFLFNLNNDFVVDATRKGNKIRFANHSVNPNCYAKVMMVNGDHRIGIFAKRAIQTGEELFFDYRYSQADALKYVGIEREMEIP

As to `CC[C@H](C)n1cc(C)c2c(C(=O)NCc3c(C)cc(C)[nH]c3=O)cc(-c3ccc(N4CCNCC4)nc3)cc21` [GSK2816126], the results for the concentration for half-maximal inhibition (IC50) with PC-3 and in the series on SK-OV-3 were 10 µM and 10.5 µM, respectively.

Regarding `CC1=C(CC(=O)NCCc2c[nH]c3ccccc23)C(=O)OC2C(O)=C(O)C=CC12` (stereo unspecified), the values for the IC50 with PC-3 and with SK-OV-3 were 5.39 µM and 7.86 µM, respectively.

In the case of `Cc1cc(C)c(CNC(=O)c2cc(C)n(-c3cccc(N4CCOCC4)c3)c2C)c(=O)[nH]1`, the Ratio IC50 in the series filed under Homo sapiens worked out at 10. The compound also came in with a concentration for half-maximal inhibition (IC50) in [1] of 4.06 µM.

`Cc1cc(C)c(CNC(=O)c2cc(C)n(-c3cccc(N4CCCCC4)c3)c2C)c(=O)[nH]1`: the Ratio IC50 in the series filed under Homo sapiens came to 10. In series [1], this compound came in with an IC50 of 1.06 µM.

For the compound `CCN(c1cc(-c2ccc(CN3CCN(C)CC3)cc2)cc(C(=O)NCc2c3c(c(C)[nH]c2=O)CCCC3)c1C)C1CCOCC1`, in series [2] (water, read-out: solubility), the solubility was found to be 3 µg/mL (≈ 4.79 µM).

Regarding `Cc1ccc(C(C2=C(O)CC(C)(C)CC2=O)C2C(=O)CC(C)(C)CC2=O)s1` (stereo unspecified), the half-inhibitory concentration (IC50) in [3] worked out at 63.9 µM.

With `Cc1cc(C)c(CNC(=O)c2c(C)cn(Cc3ccc(C(C(F)(F)F)(C(F)(F)F)C(F)(F)F)cc3)c2C)c(=O)[nH]1`, the IC50 with K562 came to 58.7 µM.

In turn, `Cc1sc(NC(=O)CCCCC(=O)Nc2sc(C)c(C)c2C(N)=O)c(C(N)=O)c1C` gave an IC50 in series [3] of 54.9 µM.

For `Cc1cc(C)c(CNC(=O)c2cc(-c3ccc(CN4CCOCC4)cc3)cc3c2cnn3C2CCCC2)c(=O)[nH]1`, in [4], the inhibition constant Ki was determined as 0.024 µM.

On to `CCN(c1cc(-c2ccc(CN3CCOCC3)cc2)cc(C(=O)NCc2c(C)cc(C)[nH]c2=O)c1C)C1CCOCC1` [TAZEMETOSTAT], for which the 50% inhibitory concentration (IC50) in the series on K562 was determined as 59.2 µM. The compound further returned a solubility in series [2] (buffer) of 185.3 µg/mL (≈ 324 µM).

In [5], `COc1cc(C)[nH]c(=O)c1CNC(=O)c1cccc2c1cc(C)n2[C@H](C)C1CCOCC1` yielded an IC50 of 0.0005 µM.
